Experimental data as given in patent US20080306257A1, “Syntheses and Preparations of Narwedine and Related Novel Compounds” (priority 2005, published 2008).

Key:
Type in all cases: physicochemical
[1] = solubility of (−)-galanthamine hydrobromide in water
Protocol: (§1) It has been further observed that (−)-galanthamine hydrobromide can be further purified with high yield and without degradation of the material by crystallization in water in the presence of ammonium bromide. Lower yields are obtained using water in the absence of ammonium bromide due to the high solubility of (−)-galanthamine hydrobromide in water (about 50 mg/mL at room temperature and 300 mg/mL at reflux temperature).

[2] = epimerization of (−)-galanthamine under acidic conditions; details: under acidic conditions (presence of hydrobromic acid)
Protocol: as §1

[3] = racemization in THF solution; details: THF solution at approximately 0° C.
Protocol: Advantage of this aspect of invention include, among others, the reduction reaction of (−)-narwedine-BF3 complex can be carried out at approximately 0° C.

With Br.COc1ccc2c3c1O[C@H]1C[C@@H](O)C=C[C@@]31CCN(C)C2 [(−)-galanthamine hydrobromide] the solubility in water ([1]; at reflux temperature) was ~300 mg/mL and the solubility in water ([1]; at room temperature) was “about 50 mg/mL”.

In the case of COc1ccc2c3c1O[C@H]1C[C@@H](O)C=C[C@@]31CCN(C)C2 [(−)-galanthamine, (4aS,6R,8aS)-4a,5,9,10,11,12-hexahydro-3-methoxy-11-methyl-6H-benzofuro[3a,3,2-ef][2]benzazepin-6-ol], the “epimerization to (−)-epigalanthamine (stability)” value [2] is reported as “rapidly epimerized”.

In the case of “(−)-narwedine-BF3 complex [(−)-narwedine.BF3 complex]”, the “racemization (configurational stability)” value [3] is reported as “racemizes very slowly”.
